# What was measured:
# Test in all cases: differential drug sensitivity score (dDSS) relative to sarcoma reference cohort mean DSS (DSS units (0-100 scale difference)); higher = more selective sensitivity than reference sarcomas
# Conditions in all cases: exposure time: 72 h; concentration range: 10-10000 nM
# [1] = system: CDS-ZH003 (patient-derived CIC-DUX4 sarcoma tumoroid)
# Experimental: (§1)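 Drug response profiling of patient-derived Ewing sarcoma and CIC::DUX4 sarcoma tumoroid models (or cells tested directly after isolation from the tumor, 'direct'). The DSS is the normalised AUC (0-100); dDSS is the sample DSS minus the mean DSS of a 34-sarcoma reference cohort profiled in the same lab.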
# [2] = system: CDS-ZH002 (patient-derived CIC-DUX4 sarcoma tumoroid)
# Experimental: as §1
# [3] = system: CDS-ZH002 direct (CIC-DUX4 sarcoma cells right after isolation)
# Experimental: as §1
# [4] = system: ES-ZH007 (patient-derived Ewing sarcoma tumoroid)
# Experimental: as §1
# [5] = system: ES-ZH004 (patient-derived Ewing sarcoma tumoroid)
# Experimental: as §1
# [6] = system: ES-ZH009 (patient-derived Ewing sarcoma tumoroid)
# Experimental: as §1
# [7] = system: ES-ZH008 (patient-derived Ewing sarcoma tumoroid)
# Experimental: as §1
# [8] = system: ES-ZH016 direct (Ewing sarcoma cells right after isolation)
# Experimental: as §1
# [9] = system: ES-ZH002 (patient-derived Ewing sarcoma tumoroid)
# Experimental: as §1
# [10] = system: CDS-ZH001-2 (patient-derived CIC-DUX4 sarcoma tumoroid)
# Experimental: as §1
# [11] = system: ES-ZH001 (patient-derived Ewing sarcoma tumoroid)
# Experimental: as §1
# [12] = system: ES-ZH016 (patient-derived Ewing sarcoma tumoroid)
# Experimental: as §1
# [13] = system: CDS-ZH001 (patient-derived CIC-DUX4 sarcoma tumoroid)
# Experimental: as §1
SMILES,differential drug sensitivity score [1],differential drug sensitivity score [2],differential drug sensitivity score [3],differential drug sensitivity score [4],differential drug sensitivity score [5],differential drug sensitivity score [6],differential drug sensitivity score [7],differential drug sensitivity score [8],differential drug sensitivity score [9],differential drug sensitivity score [10],differential drug sensitivity score [11],differential drug sensitivity score [12],differential drug sensitivity score [13]
Cn1ncc(Cl)c1-c1cc(C(=O)N[C@H](CN)Cc2ccc(F)c(F)c2)oc1Cl [Uprosertib],-2.5,-3.2,-6,1,7.2,5.6,11.2,-3.2,10.7,3.3,-2.4,1,3.3
O=C(c1cc(Cc2n[nH]c(=O)c3ccccc23)ccc1F)N1CCN(C(=O)C2CC2)CC1 [Olaparib],-5.3,-5.3,-5.3,4,11.2,-0.2,10.3,11.3,15,-2,8.4,7.1,-3.8
CC(C)C[C@H](NC(=O)CNC(=O)c1cc(Cl)ccc1Cl)B(O)O [Ixazomib],3.2,1.8,9.9,4.9,3.5,7.6,0.7,-2.2,4.9,3.6,5.2,-2.9,9.5
C[C@@H]1CN(C(=O)c2ccc(NC(=O)c3cc(O[C@H](C)c4c(Cl)ccc(F)c4Cl)c(N)nn3)cc2)C[C@H](C)N1 [Ensartinib],-1.2,-0.8,-1.9,4.2,4.3,-2.1,13.9,3.7,15.2,5.2,4.7,3.9,5
FC(F)(F)c1ccc(CNc2ccc(Cc3c[nH]c4ncc(Cl)cc34)cn2)cn1 [Pexidartinib],-1.3,-1.5,5.7,-1.5,0,-0.8,-0.7,3.5,-1.3,0.5,-1.5,0.7,-1.5
CC(C)C[C@H](NC(=O)[C@H](CCc1ccccc1)NC(=O)CN1CCOCC1)C(=O)N[C@@H](Cc1ccccc1)C(=O)N[C@@H](CC(C)C)C(=O)[C@@]1(C)CO1 [Carfilzomib],4.4,0.7,5.5,12.2,10.9,10.8,4,6.8,9.9,6,8.2,4.3,5.3
Nc1nc2[nH]cnc2c(=S)[nH]1 [Thioguanine],-4.2,0.2,2.5,1.2,12.4,9.6,10.4,3.7,17.1,5.1,15.5,-4.8,1
Cc1ccc(Nc2nccc(N(C)c3ccc4c(C)n(C)nc4c3)n2)cc1S(N)(=O)=O [Pazopanib],0.4,0.6,-1.4,-2.9,-2.9,-2.9,-2.9,17.4,-2.9,14.6,-2.9,-0.7,-2.9
CC(=O)O[C@@]12CO[C@@H]1C[C@H](O)[C@@]1(C)C(=O)[C@H](O)C3=C(C)[C@@H](OC(=O)[C@H](O)[C@@H](NC(=O)OC(C)(C)C)c4ccccc4)C[C@@](O)([C@@H](OC(=O)c4ccccc4)[C@H]21)C3(C)C [Docetaxel],-20.9,-3.2,2,5.3,5.9,26.8,11.4,17.1,23.8,6.8,24.4,20,-0.1
Cn1c(=O)n(-c2ccc(C(C)(C)C#N)cc2)c2c3cc(-c4cnc5ccccc5c4)ccc3ncc21 [Dactolisib],3.4,-0.4,1.1,1.5,1,13.6,-0.5,-7.5,5,1.3,3,-2.5,3.3
CN1CCC(COc2cnc(-c3cccc(Cn4nc(-c5cccc(C#N)c5)ccc4=O)c3)nc2)CC1 [Tepotinib],3.5,-5.4,2.3,-0.6,-4.7,9,-4.7,-4.5,0.6,-2.5,4.4,-4.3,-1.4
CCN(CC)Cc1ccc2cc(COC(=O)Nc3ccc(C(=O)NO)cc3)ccc2c1 [Givinostat],-3.4,-0.9,1.5,3.7,4.2,6.8,5.9,3.3,5.5,2.7,1.9,3.9,-0.7
CCCS(=O)(=O)Nc1ccc(F)c(C(=O)c2c[nH]c3ncc(-c4ccc(Cl)cc4)cc23)c1F [Vemurafenib],7.4,-0.6,-0.6,-0.6,-0.6,0.8,-0.6,-0.6,-0.6,-0.6,-0.6,-0.6,-0.6
CCC[C@H](NC(=O)/C(C#N)=C/c1cccc(Br)n1)c1ccccc1 [Degrasyn],0.7,-1.1,-1.4,-1.4,-1.1,-1.4,0.7,-0.2,4.8,-1.4,-1.4,-0.8,-1.4

# — the supplement of paper PMC12370961
